Values of other authors as cited in patent US20120015880A1 (priority 2008, published 2012).
Like-named read-outs stand apart in the source and are kept apart here.

Details: in vivo

- bioavailability (human): ~100%
- half life (human): ~1.5 h
- bioavailability (human, inhaled or intranasal): 3-5%
- range of Cmax between patients (human, inhaled or intranasal): 6-10 fold
- bioavailability (po): far less than one percent
Compound: NC(=O)CC[C@@H]1NC(=O)[C@H](Cc2ccccc2)NC(=O)[C@H](Cc2ccc(O)cc2)NC(=O)CCSSC[C@@H](C(=O)N2CCC[C@H]2C(=O)N[C@H](CCCN=C(N)N)C(=O)NCC(N)=O)NC(=O)[C@H](CC(N)=O)NC1=O [desmopressin, 1-desamino-8-D-arginine vasopressin]
